According to patent US10857105B2, “Compounds and compositions for intracellular delivery of therapeutic agents” (ModernaTX, Inc., priority 2017, dated 2020):
Entries after “also recorded” stand apart in the source; their conditions may differ.

Tests used:
[1] = tested on: mRNA encoding anti-HA antibody; assay: Anti-HA (anti-hemagglutinin) antibody expression after intravenous infusion to cynomolgus monkeys; assay type: in vivo; conditions: iv infusion 60 minutes
Method: FIGS. 11A and 11B show the results of anti-HA (anti-hemagglutinin) antibody expression measured after intravenous administration of various nanoparticle compositions including MC3 and Compound 18 at a 0.1 mpk (FIG. 11A) or 0.3 mpk (FIG. 11B) dose with 60 minutes infusion to naive cynomolgus monkeys.
FIGS. 31A-31C is a series of graphs illustrating the expression profile for lipid nanoparticles of the disclosure in a cynomolgus money study. FIG. 31A illustrates hEPO serum concentrations after delivery of 0.01 mg/kg hEPO mRNA in MC3 or Compound 18. The liquid nanoparticles were administered intravenously, via a 60 min. infusion (n=3). p<0.05 for Compound 18 AUC relative to MC3.
FIG. 36 is a graph illustrating Human IgG expression in a cynomolgus monkey administered with 0.1 mg/kg human IgG mRNA in a composition comprising MC3 or compound 18, intravenously via a 60 min. infusion (n=3).
Results of hEPO expression studies were validated using a standard MC3 formulation and a nanoparticle composition containing Compound 18 including an mRNA encoding an anti-hemagglutinin (anti-HA) antibody. Cynomolgus monkeys were administered a single dose of 0.1 mpk or 0.3 mpk of nanoparticle composition containing Compound 18 (see Table 33; prepared according to Example 2) including an mRNA encoding anti-HA antibody via intravenous infusion for 60 minutes.

CD-1 mouse liver = assay: Lipid remaining in mouse liver tissue 24 h post dose (LC-MS/MS); assay type: in vivo; conditions: CD-1 mouse liver 24 h after 0.5 mg/kg bolus dose mRNA, n = 5 ± S.D.
Method: (§1) LNP administration to animals: mRNA-LNPs diluted in phosphate buffered saline (PBS) were injected intravenously (5 mL/kg) into female CD-1 female mice (18 to 22 g in body weight) and male Sprague-Dawley rats (225-250 g in body weight) via the tail vein using 29 g, 3/10 cc insulin syringes (mice) or 27 g, 1 mL syringes (rats) after gentle warming of the animals using a heat lamp for 3 minutes.
Quantification of Lipid by LC-MS/MS: Liver samples were homogenized following addition of 19 eq. […] Protein was precipitated and analyzed against calibration standards prepared in matching blank. Chromatographic separation and quantification was accomplished with a LC-MS/MS System. Samples were injected and separated via HPLC A triple-quadrupole MS/MS system operated in positive ion mode was used for signal detection.

human hepatocytes = assay: Metabolite profiling of Compound 18 incubated with human hepatocytes; assay type: in vitro ADME; parameters: key: +: Detected; ND: Not detected; conditions: Compound 18 (10 μM)
Method: In vitro metabolite identification studies using compound 18 were also performed. […] The disappearance of parent compound 18 and the primary metabolite, compound 166, from mouse liver tissue was measured after dosing 0.25 mg/kg mRNA on days 1, 8, and 15.
The results of metabolic profiling and characterization for compound 18 incubated with human hepatocytes or human plasma are summarized in Tables 41 and 42, respectively.

NHP tissues = assay: Lipid tissue accumulation in NHP after a single dose; assay type: in vivo, cynomolgus monkey
Method: NHP studies: Nonhuman primate studies were conducted using naïve cynomolgus monkeys (cynos), 2-4 years old, weighing 2-6 kg. No treatment randomization or blinding methods were used for any of the animal studies. Sample sizes were determined by the resource equation method. For injection, mRNA-LNPs in phosphate buffered saline (PBS) were administered by 60-minute intravenous infusion using a temporary indwelling catheter inserted in a peripheral vein.
NHP more closely approximates clinical responses for LNP-based systems than rodent (DeRosa, F., Guild, B., Karve, S., Smith, L., Love, K., Dorkin, J R., et. al. Therapeutic efficacy in a hemophilia B model using a biosynthetic mRNA liver depot system. Gene Ther. 2016, 23, 699-707, the contents of which are incorporated herein by reference in their entireties). In order to translate the findings from rodent to the non-human primate (NHP), the lipids were tested in NHP. For this purpose, it was evaluated whether the improved expression observed in mouse and rat with LNPs containing compound 18 could also be achieved in NHP after a single dose. […] A dose of 0.01 mg/kg of hEPO-encoding mRNA was delivered via a 60 minute intravenous infusion. […] A separate study evaluated the lipid tissue accumulation in NHP after a single dose.

in vivo = conditions: male, Sprague-Dawley, rat, iv
Method: as §1
Protein was precipitated and analyzed against calibration standards prepared in matching blank. Chromatographic separation and quantification was accomplished with a LC-MS/MS System. Samples were injected and separated via HPLC A triple-quadrupole MS/MS system operated in positive ion mode was used for signal detection.
PK analysis of the individual plasma and tissue concentration data was performed using anon-validated program (Phoenix WinNonlin®, Version 7.0 (Pharsight Corp., Mountain View, Calif.)). Kinetic parameters were estimated using a noncompartmental model (Plasma (200-202), Uniform weighting, extravascular dosing with sparse sampling). The AUG was calculated using the linear trapezoidal rule. All derived parameters are reported to 3 significant figures with the exception of time to peak concentration (Tmax) and halflife (HL), which are reported to one decimal place. No further statistical analyses were performed on the plasma concentration data or derived pharacokinetic parameters.

CD-1 mice = assay: Luciferase expression after intravenous delivery of luciferase mRNA LNPs (bioluminescent imaging); assay type: in vivo; conditions: intravenous 0.5 mg/kg mRNA dose
Method: Whole body and ex vivo organ bioluminescent imaging of mice: CD-1 mice were injected 15 minutes prior to the imaging timepoint intraperitoneally (IP) with 200 μL Xenolight D-luciferin K+ salt, diluted in PBS just prior to use to a concentration of 15 mg/mL. Ex vivo imaging of organs was completed, within 25 minutes of luciferin administration. All images were quantified by region of interest for total flux.
[…] […] (See Semple, S.C. et al., Nature Biotech. 2010. 28, 172-176, Jayaraman, M., et al. Angew. Chem. Int. Ed. 2012, 51, 8529-8533, the entire contents of each of which are incorporated by reference herein in their entireties). To evaluate the efficiency of the new amino lipids, LNPs using the novel compounds were tested in vivo in mice using luciferase mRNA as a reporter. An MC3 LNP was included as a control in each experiment, enabling the comparison of LNPs from experiment to experiment. Measured luciferase activity also enabled the determination of protein bio-distribution.

[2] = tested on: modified luciferase (Luc) mRNA and H10 mRNA; assay: Expression after intramuscular administration of formulations including Luc mRNA and H10 mRNA; assay type: in vivo; conditions: 6 hours after intramuscular administration
Method: Sample formulations including both modified luciferase (Luc) mRNA and H10 mRNA were prepared and administered intramuscularly and the resulting expression and immunogenicity were evaluated simultaneously. Formulations including compounds according to Formula (I), (IA), (IB), (II), (IIa), (IIb), (IIc), (IId), (IIe), (IIf), (IIg), or (III) were prepared and administered at doses of 0.001 and 0.01 mpk (e.g., doses of 0.0005 mpk of a formulation including Luc mRNA and a formulation including H10 mRNA or doses of 0.005 mpk of a formulation including Luc mRNA and a formulation including H10 mRNA).
The fluxes measured upon intravenous and intramuscular administration are compared in Table 6. Fluxes are presented as fold increase over that measured for MC3 formulations.

hEPO mRNA = assay: hEPO expression and pharmacokinetic parameters after intravenous infusion to non-human primates; assay type: in vivo; conditions: 0.01 mpk, iv infusion 60 minutes, cynomolgus monkeys

Compound | AUC (anti-HA antibody expression) ([1]; Dose 0.1 mpk) [µg·h/mL] | AUC (anti-HA antibody expression) ([1]; Dose 0.3 mpk) [µg·h/mL] | % dose remaining Mouse liver tissue, 24 h (CD-1 mouse liver) | lipid residue in tissues at 12 hours post dose (NHP tissues) | Total flux, 0.001 mpk Dose [2] [p/s] | Total flux, 0.01 mpk Dose [2] [p/s] | other results
CCCCCCCCCOC(=O)CCCCCCCN(CCO)CCCCCCCC(=O)OC(CCCCCCCC)CCCCCCCC [Compound 18, Heptadecan-9-yl 8-((2-hydroxyethyl)(8-(nonyloxy)-8-oxooctyl)amino)octanoate] | 354.3 | 1055 | no lipid detected at 24 h | significantly lower levels | – | – | Detection at 0 min (human hepatocytes; human hepatocytes (1 million cells/mL), 0 min): +; Detection at 60 min (human hepatocytes; human hepatocytes, 60 min): +; Detection at 120 min (human hepatocytes; human hepatocytes, 120 min): +; Detection at 240 min (human hepatocytes; human hepatocytes, 240 min): +; half-life (in vivo): 5.8 h
CCCCCCCCCCCOC(=O)CCCCCN(CCO)CCCCCCCC(=O)OC(CCCCCCCC)CCCCCCCC [Compound 25, Heptadecan-9-yl 8-((2-hydroxyethyl)(6-oxo-6-(undecyloxy)hexyl)amino)octanoate] | – | – | – | – | – | – | luciferase activity/expression compared to MC3 LNP control (words) (CD-1 mice): higher expression compared to MC3
CCCCCCCCCOC(=O)CCCN(CCO)CCCCCCCC(=O)OC(CCCCCCCC)CCCCCCCC [Compound 26, Heptadecan-9-yl 8-((2-hydroxyethyl)(4-(nonyloxy)-4-oxobutyl)amino) octanoate] | – | – | – | – | – | – | luciferase activity/expression compared to MC3 LNP control (words) (CD-1 mice; 0.5 mg/kg): higher expression compared to MC3; also recorded: highest luciferase activity of the series
CCCCCC=CCC=CCCCCCCCCC(CCCCCCCCC=CCC=CCCCCC)OC(=O)CCCN(C)C (centres unmarked) [MC3, heptatriaconta-6,9,28,31-tetraen-19-yl 4-(dimethylamino)butanoate, reference compound] | 77.05 | 235.7 | 71 ± 27% | found in multiple tissues | 2.76E+06 | 3.68E+07 | AUC Lipid/MC3 Ratio (hEPO mRNA): 1.0
Nonyl 8-((6-(heptadecan-9-yloxy)-6-oxohexyl)(2-hydroxyethyl)amino) octanoate [Compound 27] | – | – | – | – | 2.55E+06 | 3.17E+07 | –
